# Experimental data reported in patent US8952024B2, “Herbicidal pyrimidone derivatives” (E I du Pont de Nemours and Company, priority 2009, dated 2015).
# Columns and labels:
# Experiment in all cases: Test B pre-/postemergence plant response
# Format in all cases: in vivo
# [1] = test system: Surinam grass (Brachiaria decumbens)
# In short: (§1)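 Pre-em in loam/sand; post-em at 1–4 leaf (2–18 cm) in peat mix. Solvent + surfactant formulation. Greenhouse 13–15 d; visual % control vs untreated, 0–100.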
# [2] = test system: green foxtail (Setaria viridis)
# In short: as §1
# [3] = test system: bermudagrass (Cynodon dactylon)
# In short: as §1
# [4] = test system: yellow nutsedge (Cyperus esculentus)
# In short: as §1
# [5] = test system: large crabgrass (Digitaria sanguinalis)
# In short: as §1
# [6] = test system: Italian ryegrass (Lolium multiflorum)
# In short: as §1
# [7] = test system: morningglory (Ipomoea coccinea)
# In short: as §1
# corn (Zea mays) = test system: corn (Zea mays)
# In short: as §1
# [8] = test system: lambsquarters (Chenopodium album)
# In short: as §1
# [9] = test system: downy bromegrass (Bromus tectorum)
# In short: as §1
# [10] = test system: woolly cupgrass (Eriochloa villosa)
# In short: as §1
# [11] = test system: blackgrass (Alopecurus myosuroides)
# In short: as §1
# [12] = test system: giant foxtail (Setaria faberii)
# In short: as §1
# [13] = 250 g ai/ha, Preemergence, 0 to 100 scale
# [14] = Postemergence, 62 g ai/ha, scale 0 (no effect) to 100 (complete control), 13 to 15 days
# [15] = Postemergence, 125 g ai/ha, visual rating after 13 to 15 days, scale 0 (no effect) to 100 (complete control)
# [16] = Preemergence, 31 g ai/ha, scale 0 to 100 (0 no effect, 100 complete control)
# [17] = Preemergence, 62 g ai/ha, scale 0 to 100 (0 no effect, 100 complete control)
# [18] = Preemergence, 125 g ai/ha, 0 to 100 scale
# [19] = Postemergence, 31 g ai/ha, scale 0 to 100 (0 no effect, 100 complete control)
# [20] = Postemergence, 250 g ai/ha, scale 0 to 100
smiles,measurement,setting,value
Cc1cc(C)cc(-n2c(-c3ccccc3)ncc(C(=O)C3=C(O)CCCC3=O)c2=O)c1 [Compound 33],"Plant response rating, Surinam Grass",[1]; [13],100
same,"Plant response rating, Surinam Grass",[1]; [14],65
same,"Plant response rating, Surinam Grass",[1]; [15],75
same,"Plant response rating, Surinam Grass",[1]; [16],0
same,"Plant response rating, Surinam Grass",[1]; [17],65
same,Surinam Grass plant response rating,[1]; [18],95
same,"Plant response rating, Foxtail, Green",[2]; [13],100
same,"Plant response rating, Foxtail, Green",[2]; [19],50
same,"Plant response rating, Foxtail, Green",[2]; [14],85
same,"Plant response rating, Foxtail, Green",[2]; [15],90
same,"Foxtail, Green plant response rating",[2]; [20],90
same,"Plant response rating, Foxtail, Green",[2]; [16],0
same,"Plant response rating, Foxtail, Green",[2]; [17],45
same,"Foxtail, Green plant response rating",[2]; [18],100
same,"Plant response rating, Bermudagrass",[3]; [13],100
same,"Plant response rating, Bermudagrass",[3]; [19],75
same,"Plant response rating, Bermudagrass",[3]; [14],95
same,"Plant response rating, Bermudagrass",[3]; [15],98
same,Bermudagrass plant response rating,[3]; [20],98
same,"Plant response rating, Bermudagrass",[3]; [16],98
same,"Plant response rating, Bermudagrass",[3]; [17],100
same,Bermudagrass plant response rating,[3]; [18],100
same,"Plant response rating, Nutsedge, Yellow",[4]; [13],90
same,"Plant response rating, Nutsedge, Yellow",[4]; [14],50
same,"Plant response rating, Nutsedge, Yellow",[4]; [15],75
same,"Plant response rating, Nutsedge, Yellow",[4]; [16],0
same,"Plant response rating, Nutsedge, Yellow",[4]; [17],45
same,"Nutsedge, Yellow plant response rating",[4]; [18],70
same,"Plant response rating, Crabgrass, Large",[5]; [13],100
same,"Plant response rating, Crabgrass, Large",[5]; [19],75
same,"Plant response rating, Crabgrass, Large",[5]; [14],85
same,"Plant response rating, Crabgrass, Large",[5]; [15],90
same,"Crabgrass, Large plant response rating",[5]; [20],98
same,"Plant response rating, Crabgrass, Large",[5]; [16],85
same,"Plant response rating, Crabgrass, Large",[5]; [17],98
same,"Crabgrass, Large plant response rating",[5]; [18],100
same,"Plant response rating, Ryegrass, Italian",[6]; [13],5
same,"Plant response rating, Ryegrass, Italian",[6]; [14],10
same,"Plant response rating, Ryegrass, Italian",[6]; [15],40
same,"Plant response rating, Ryegrass, Italian",[6]; [16],0
same,"Plant response rating, Ryegrass, Italian",[6]; [17],0
same,"Ryegrass, Italian plant response rating",[6]; [18],5
same,"Plant response rating, Morningglory",[7]; [13],90
same,"Plant response rating, Morningglory",[7]; [14],60
same,"Plant response rating, Morningglory",[7]; [15],80
same,"Plant response rating, Morningglory",[7]; [16],0
same,"Plant response rating, Morningglory",[7]; [17],15
same,Morningglory plant response rating,[7]; [18],70
same,"Plant response rating, Corn",corn (Zea mays); [13],0
same,"Plant response rating, Corn",corn (Zea mays); [19],0
same,"Plant response rating, Corn",corn (Zea mays); [14],10
same,"Plant response rating, Corn",corn (Zea mays); [15],10
same,Corn plant response rating,corn (Zea mays); [20],15
same,"Plant response rating, Corn",corn (Zea mays); [16],0
same,"Plant response rating, Corn",corn (Zea mays); [17],0
same,Corn plant response rating,corn (Zea mays); [18],0
same,"Plant response rating, Lambsquarters",[8]; [13],100
same,"Plant response rating, Lambsquarters",[8]; [14],98
same,"Plant response rating, Lambsquarters",[8]; [15],98
same,Lambsquarters plant response rating,[8]; [20],100
same,"Plant response rating, Lambsquarters",[8]; [16],98
same,"Plant response rating, Lambsquarters",[8]; [17],100
same,Lambsquarters plant response rating,[8]; [18],100
same,"Plant response rating, Bromegrass, Downy",[9]; [13],30
same,"Plant response rating, Bromegrass, Downy",[9]; [19],5
same,"Plant response rating, Bromegrass, Downy",[9]; [14],5
same,"Plant response rating, Bromegrass, Downy",[9]; [15],10
same,"Bromegrass, Downy plant response rating",[9]; [20],20
same,"Plant response rating, Bromegrass, Downy",[9]; [16],0
same,"Plant response rating, Bromegrass, Downy",[9]; [17],0
same,"Bromegrass, Downy plant response rating",[9]; [18],5
same,"Plant response rating, Cupgrass, Woolly",[10]; [13],85
same,"Plant response rating, Cupgrass, Woolly",[10]; [19],65
same,"Plant response rating, Cupgrass, Woolly",[10]; [14],65
same,"Plant response rating, Cupgrass, Woolly",[10]; [15],70
same,"Cupgrass, Woolly plant response rating",[10]; [20],90
same,"Plant response rating, Cupgrass, Woolly",[10]; [16],10
same,"Plant response rating, Cupgrass, Woolly",[10]; [17],50
same,"Cupgrass, Woolly plant response rating",[10]; [18],60
same,"Plant response rating, Blackgrass",[11]; [13],30
same,"Plant response rating, Blackgrass",[11]; [19],10
same,"Plant response rating, Blackgrass",[11]; [14],15
same,"Plant response rating, Blackgrass",[11]; [15],30
same,Blackgrass plant response rating,[11]; [20],30
same,"Plant response rating, Blackgrass",[11]; [16],0
same,"Plant response rating, Blackgrass",[11]; [17],0
same,Blackgrass plant response rating,[11]; [18],10
same,"Plant response rating, Foxtail, Giant",[12]; [13],98
same,"Plant response rating, Foxtail, Giant",[12]; [19],75
same,"Plant response rating, Foxtail, Giant",[12]; [14],80
same,"Plant response rating, Foxtail, Giant",[12]; [15],85
same,"Foxtail, Giant plant response rating",[12]; [20],95
same,"Plant response rating, Foxtail, Giant",[12]; [16],10
same,"Plant response rating, Foxtail, Giant",[12]; [17],45
same,"Foxtail, Giant plant response rating",[12]; [18],95
